Data reported in patent US20250326708A1, “LONG-ACTING SPLEEN-TARGETING CATIONIC LIPID COMPOUND COMPRISING BENZENE RING STRUCTURE, COMPOSITION COMPRISING SAME, AND USE THEREOF” (Beijing Youcarekechuang Pharmaceutical Technology Co., Ltd., priority 2024, published 2025).

Legend:
[1] = Particle size and polydispersity index (PDI) of lipid nanoparticles, dynamic light scattering; type: physicochemical; conditions: LNP preparation with the named cationic lipid; 90° scattering angle, 25° C
Excerpt: (§1) The cationic lipids listed in Table 2 were each mixed with DSPC (AVT (Shanghai) Pharmaceutical Technology Co., Ltd.), cholesterol (AVT (Shanghai) Pharmaceutical Technology Co., Ltd.), and DMG-PEG2000 in a molar ratio of 49:10:39.5:1.5 and dissolved in ethanol to prepare ethanol lipid solutions. Using the ethanol injection method, the ethanol lipid solutions were quickly added to a citrate buffer (pH between 4 and 5), and vortexed for 30 seconds for later use. eGFP-mRNA (purchased from Shanghai BioHub Biotechnology Co., Ltd.), Fluc-mRNA (purchased from Shanghai BioHub Biotechnology Co., Ltd.), or Cy5 fluorescently labeled Leqvio (purchased from Sangon Biotech (Shanghai) Co., Ltd.) was diluted in a citrate buffer (pH between 4 and 5) to obtain an mRNA aqueous solution. A certain volume of the lipid solution and the mRNA aqueous solution were mixed to prepare liposomes at a total lipid-to-mRNA weight ratio of 15:1. The mixtures were sonicated at 25° C. for 15 minutes (ultrasonic frequency: 40 kHz, ultrasonic power: 800 W). The resulting liposomes were diluted 10-fold with PBS, followed by ultrafiltration using a 300 kDa ultrafiltration tube to remove ethanol. After adjusting the volume with PBS, LNP preparations encapsulating eGFP-mRNA or Fluc-mRNA were obtained, using cationic lipids, DSPC, cholesterol, and DMG-PEG2000 at a molar ratio of 49:10:39.5:1.5.
The particle size and polydispersity index (PDI) were measured using dynamic light scattering with a Malvern laser diffraction particle size analyzer.
10 μL of liposome solution was diluted to 1 mL with RNase-free deionized water and added to the sample cell. Each sample was measured three times. The measurement conditions were as follows: 90° scattering angle, 25° C.

293T cells [2] = test: Fluorescence detection of Fluc-mRNA (transfection efficiency) of LNP preparations; type: cell-based; conditions: for Relative light unit (RLU): LNP with 0.3 μg Fluc-mRNA, 96-well plate, 24 hours
Protocol: (§2) Cell recovery and passage: 293T cells were recovered and cultured in culture dishes. The cells were passaged until the required number of cells was obtained.
(§3) Seeding plates: The cells in culture dishes were digested and counted, then seeded in a 96-well plate at 10,000 cells per well and seeded in a 12-well plate at 150,000 cells per well. The cells were cultured overnight until cell adhesion.
as §1
(§4) Cell recovery and passage: The method was the same as described in Example 3.
(§5) Seeding plates: The method was the same as described in Example 3.
LNP preparations containing 0.3 μg of Fluc-mRNA (with the vector components of the LNP preparations of cationic lipids, DSPC, cholesterol, and DMG-PEG2000 in a molar ratio of 49:10:39.5:1.5, where the cationic lipids are those listed in Table 1) were added to the cell culture medium in a 96-well plate. After 24 hours of continued culture, the corresponding reagents were added according to the instructions in the Gaussia Luciferase Assay Kit. Fluorescence intensity in each well was detected using the IVIS fluorescence detection system. The transfection efficiency of LNP preparations prepared with a series of cationic lipid compounds designed in the present disclosure, as well as cationic lipids from the prior art, including SM-102, HHMA, MC3, compound 7, and I-1, is shown in Table 4.

293T cells [3] = test: Cell viability assay (CCK-8) with LNP preparations of Fluc-mRNA; type: cell-based; conditions: LNP with 1.5 μg Fluc-mRNA, 24 hours, CCK-8
Protocol: as §2, §3, §1, §4, §5
LNP preparations containing 1.5 μg of Fluc-mRNA (with the vector components of the LNP preparations of cationic lipids, DSPC, cholesterol, and DMG-PEG2000 in a molar ratio of 49:10:39.5:1.5, where the cationic lipids are those listed in Table 1) were added to the cell culture medium in a 96-well plate. After 24 hours of continued culture, 10 μL of CCK-8 solution was added to each well, and the culture plate was incubated in an incubator for 1 hour.

female BALB/C mice = test: Expression of delivered mRNA in mice in vivo (IVIS in vivo imaging); conditions: 10 μg Fluc-mRNA via tail vein
Protocol: LNP preparations containing 10 μg of Fluc-mRNA were injected via the tail vein into female BALB/C mice (4 to 6 weeks old, weighing 17 to 19 g). At specified time points after administration (6 h, 24 h, 48 h, and 7 d), the mice were intraperitoneally injected with fluorescent imaging substrates and allowed to move freely for 5 minutes. The average radiation intensity (corresponding to fluorescence intensity) of proteins expressed by the mRNA delivered by the LNP preparations in the mice in vivo was then detected using the IVIS Spectrum small-animal in vivo imaging system.

Row | Compound | PDI [1] [%] | Particle size [1] [nm] | Relative light unit (RLU) (293T cells [2]) | Cell viability (293T cells [3]) [%] | Average radiation intensity, in vivo imaging (female BALB/C mice; 6 h) | Average radiation intensity, in vivo imaging (female BALB/C mice; 24 h) | Average radiation intensity, in vivo imaging (female BALB/C mice; 48 h) | Average radiation intensity, in vivo imaging (female BALB/C mice; 7 d) | Cellular transfection efficiency, times that of HHMA (293T cells [2]; Fluc-mRNA LNP, vs HHMA) [times] | Cellular transfection efficiency, times that of I-1 (293T cells [2]; Fluc-mRNA LNP, vs I-1) [times] | Cellular transfection efficiency, times that of MC3 (293T cells [2]; Fluc-mRNA LNP, vs MC3) [times] | Cellular transfection efficiency, times that of SM-102 (293T cells [2]; Fluc-mRNA LNP, vs SM-102) [times] | Cellular transfection efficiency, times that of YK-501 (293T cells [2]; Fluc-mRNA LNP, vs YK-501) [times] | Cellular transfection efficiency, times that of YK-506 (293T cells [2]; Fluc-mRNA LNP, vs YK-506) [times] | Cellular transfection efficiency, times that of compound 7 (293T cells [2]; Fluc-mRNA LNP, vs compound 7) [times]
1 | CCCCCCCCC(CCCCCC)COC(=O)CCCCCN(CCCCCC(=O)OCC(CCCCCC)CCCCCCCC)CCCCC(=O)OCc1ccccc1.I (stereo not drawn) [I-1, bis(2-hexyldecyl) 6,6′-((5-(benzyloxy)-5-oxopentyl)azanediyl)dihexanoate, reference compound] | 16.2 | 158 | 202730 | 68 |  |  |  |  |  |  |  |  |  |  | 
2 | CCCCCCCCCCCCC(O)CN(C)CCCCCC(=O)OCC(CCCCCC)CCCCCCCC (stereo not drawn) [HHMA, reference compound] | 16.3 | 146 | 1011156 | 77 |  |  |  |  |  |  |  |  |  |  | 
3 | CCCCCCCCC(CCCCCC)COC(=O)CCCCCN(CCCCCC(=O)OCC(CCCCCC)CCCCCCCC)CCN(CCO)c1ccccc1 (stereo not drawn) [Compound 7, bis(2-hexyldecyl) 6,6′-((2-((2-hydroxyethyl) (phenyl)amino)ethyl)azanediyl)dihexanoate, reference compound] | 14.3 | 162 | 257490 | 73 | 1847654 | 185473 | 96543 | 8511 |  |  |  |  |  |  | 
4 | CCCCC/C=C\C/C=C\CCCCCCCCC(CCCCCCCC/C=C\C/C=C\CCCCC)OC(=O)CCCN(C)C [MC3, reference compound] | 15.7 | 151 | 94904 | 74 |  |  |  |  |  |  |  |  |  |  | 

Now from value to compound, other results behind:

Row | PDI [1] [%] | Particle size [1] [nm] | Compound | Relative light unit (RLU) (293T cells [2]) | Cell viability (293T cells [3]) [%] | Average radiation intensity, in vivo imaging (female BALB/C mice; 6 h) | Average radiation intensity, in vivo imaging (female BALB/C mice; 24 h) | Average radiation intensity, in vivo imaging (female BALB/C mice; 48 h) | Average radiation intensity, in vivo imaging (female BALB/C mice; 7 d) | Cellular transfection efficiency, times that of HHMA (293T cells [2]; Fluc-mRNA LNP, vs HHMA) [times] | Cellular transfection efficiency, times that of I-1 (293T cells [2]; Fluc-mRNA LNP, vs I-1) [times] | Cellular transfection efficiency, times that of MC3 (293T cells [2]; Fluc-mRNA LNP, vs MC3) [times] | Cellular transfection efficiency, times that of SM-102 (293T cells [2]; Fluc-mRNA LNP, vs SM-102) [times] | Cellular transfection efficiency, times that of YK-501 (293T cells [2]; Fluc-mRNA LNP, vs YK-501) [times] | Cellular transfection efficiency, times that of YK-506 (293T cells [2]; Fluc-mRNA LNP, vs YK-506) [times] | Cellular transfection efficiency, times that of compound 7 (293T cells [2]; Fluc-mRNA LNP, vs compound 7) [times]
5 | 10.2 | 124 | CCCCCCCCCCOC(=O)CCCN(CCCCCC(=O)OCC(CCCCCCCC)CCCCCCCC)CCNC(CO)(CO)CCc1ccc(CCCCCCCC)cc1 [YK-906, 2-octyldecyl 6-((4-(decyloxy)-4-oxobutyl) (2-((1-hydroxy-2-(hydroxymethyl)-4-(4-octylphenyl)butan-2-yl)amino)ethyl)amino) hexanoate] | 27546 | 63 |  |  |  |  |  |  |  |  |  |  | 
6 | 15.1 | 152 | CCCCCCCCCCOC(=O)CCCNC(CO)(CO)CCc1ccc(CCCCCCCC)cc1 [YK-903, decyl 4-((1-hydroxy-2-(hydroxymethyl)-4-(4-octylphenyl)butan-2-yl)amino) butanoate] | 25006 | 47 |  |  |  |  |  |  |  |  |  |  | 
7 | 10.4 | 136 | CCCCCCCCc1ccc(CCC(CO)(CO)NCCCCCCC(=O)OCC(CCCCCCCC)CCCCCCCC)cc1 [YK-911, 2-octyldecyl 7-((1-hydroxy-2-(hydroxymethyl)-4-(4-octylphenyl)butan-2-yl)amino) heptanoate] | 1299055 | 62 |  |  |  |  |  |  |  |  |  |  | 
8 | 8.2 | 112 | CCCCCCCCCCCOC(=O)CCCCCCNC(CO)(CO)CCc1ccc(CCCCCCCC)cc1 [YK-904, undecyl 7-((1-hydroxy-2-(hydroxymethyl)-4-(4-octylphenyl)butan-2-yl)amino) heptanoate] | 125048 | 52 | 1116384 | 115355 | 28552 | 3243 |  |  |  |  |  |  | 
9 | 17.4 | 162 | CCCCCCCCCCC(CCCCCCCCCC)CCCOC(=O)CCCCCNC(CO)(CO)CCc1ccc(CCCCCCCC)cc1 [YK-901, 4-decyltetradecyl 6-((1-hydroxy-2-(hydroxymethyl)-4-(4-octylphenyl)butan-2-yl)amino) hexanoate] | 43423 | 58 |  |  |  |  |  |  |  |  |  |  | 
10 | 16.2 | 159 | CCCCCCCCCCCCCCNC(=O)CCCCCNC(CO)(CO)CCc1ccc(CCCCCCCC)cc1 [YK-907, 6-((1-hydroxy-2-(hydroxymethyl)-4-(4-octylphenyl)butan-2-yl)amino)-N-tetradecylhexanamide] | 37699 | 73 |  |  |  |  |  |  |  |  |  |  | 
11 | 16.9 | 135 | CCCCCCCCCCCOC(=O)CCCCCNC(CO)(CO)CCc1ccc(CCCCCCCC)cc1 [YK-905, undecyl 6-((1-hydroxy-2-(hydroxymethyl)-4-(4-octylphenyl)butan-2-yl)amino) hexanoate] | 72425 | 51 |  |  |  |  |  |  |  |  |  |  | 
12 | 12.4 | 142 | CCCCCCCCCCC(CCCCCCCCCC)CCCOC(=O)CCCNC(CO)(CO)CCc1ccc(CCCCCCCC)cc1 [YK-902, 4-decyltetradecyl 4-((1-hydroxy-2-(hydroxymethyl)-4-(4-octylphenyl)butan-2-yl)amino) butanoate] | 311132 | 36 |  |  |  |  | 0.31 | 1.53 | 3.28 | 0.22 | 6.73 | 0.48 | 1.21
